US20110093959A1, “CRYPTOTIS PARVA SCREENING MODEL FOR ANTIEMETIC POTENTIAL” (priority 2008, published 2011)
“Also recorded” adds a separate entry of the source.

How the values were obtained:
Assay type in all cases: in vivo, Cryptotis parva
[1] = tested on: GR73632-induced emesis and scratching in the Least Shrew; test: Antagonist interaction study against GR73632 (5 mg/kg, i.p.)-induced emesis and scratching; settings: for behavioral effect of antagonist by itself: 20 mg/kg dose, without GR73632
From the text: The present protocols were based upon preliminary studies as well as published findings in the Least Shrew. Darmani, 2001a; Darmani et al., 69 Pharmacol. Biochem. Behay. 239-49 (2001b). On the test day, the shrews were allowed to acclimate to the test laboratory for at least one hour prior to experimentation. To habituate the animals to the test environment, each shrew was randomly selected and transferred to a 20 cm×18 cm×21 cm clean clear plastic cage and offered four mealworms (Tenebrio sp.) 30 min prior to experimentation.
The latter doses of SP and GR73632 were chosen for subsequent antagonist interaction studies to pharmacologically characterize the role of NK1 receptors in the mediation of induced emesis by the use of: (1) two selective neurokinin NK1 receptor antagonists (CP99,994 and L733060) (Watson et al., 115 Br. J. Phramacol. 84-94 (1995); Guiard et al., 89 J. Neurochem. 54-63 (2004)); (2) an NK2 receptor antagonist (GR159897) (Beresford et al., 272 Eur. J. Pharmacol. 241-48 (1995)); and (3) an NK3 receptor antagonist (SB218795) (Salthun-Lassalle et al., 1995).
For the above drug interaction studies, different doses (i.p.) of either CP99,994 (0, 5, 10, and 20 mg/kg, n=10-14 shrews per group); L733060 (0, 5, 10, and 20 mg/kg, n=10-14 shrews per group), GR159897 (0 mg/kg and 20 mg/kg, n=8 per group) or SB218795 (0 or 20 mg/kg, n=7-8 per group) were administered to different groups of shrews 30 min prior to injection of an emetic dose (5 mg/kg, i.p.) of the NK1-receptor agonist GR73632. Emesis and scratchings were recorded for 30 min immediately following GR73632 administration as described above. The antiemetic effect of CP99,994 (0, 5, and 10 mg/kg, n=9-10 animals per group) was also investigated in a similar manner against SP (50 mg/kg, i.p.)-induced emesis.
(§1) The data on the frequency of emesis and scratchings were analyzed by the Kruskal-Wallis (KW) nonparametric one-way analysis of variance (ANOVA) and post hoc analysis by Dunn's multiple comparisons test or Mann-Whitney test. A P value of <0.05 was necessary to attain statistical significance. The incidence of emesis (number of shrews vomiting) was analyzed by the Fisher's exact test to determine whether there were differences between groups. When appropriate, pairwise comparisons were also made by this method. Two-way analysis of variance using the Kruskal-Wallis or Fisher's exact tests were initially utilized to respectively analyze the dose-response results of GR73632 on emesis and scratching behaviors, and percentage of shrews vomiting in saporin- and corresponding saline-pretreated control shrews. […] For some emesis data, the two-tailed Mann-Whitney test was used. The SP tissue concentration data were analyzed by a one-way ANOVA followed by Dunnett's t test as post hoc analysis. Fos-IR was quantified by counting immunopositive nuclei within each hemisection containing the region of interest (ROI). The number of nuclei was averaged across sections with the ROI for each animal, and the group mean and standard error obtained.

Least Shrew [2] = test: Emetic effect of arachidonic acid metabolites and leukotrienes in the Least Shrew; settings: found experimentally
Experimental: Varying doses of leukotriene LTC4 were administered by intraperitoneal injection, and dose-response emetic effects recorded for 30 min post-injection observation period. The graph in FIG. 20 depicts enhancements in the frequency (mean±S.E.M.) of emesis.

Least Shrew [3] = test: Dose response emesis and scratching studies with tachykinin receptor agonists
From the text: The present protocols were based upon preliminary studies as well as published findings in the Least Shrew. Darmani, 2001a; Darmani et al., 69 Pharmacol. Biochem. Behay. 239-49 (2001b). On the test day, the shrews were allowed to acclimate to the test laboratory for at least one hour prior to experimentation. To habituate the animals to the test environment, each shrew was randomly selected and transferred to a 20 cm×18 cm×21 cm clean clear plastic cage and offered four mealworms (Tenebrio sp.) 30 min prior to experimentation. […]
as §1

[4] = tested on: CIS-induced emesis in the Least Shrew; test: Tropisetron, Δ^9-THC and dexamethasone alone or in combination against CIS (20 mg/kg)-induced emesis, 60 min
Experimental: Briefly, all animals were randomly divided into two groups. On the test day, shrews were habituated to the laboratory environment for at least 1 hr prior to experimentation. […] All drugs were administered at a volume of 0.1 ml/10 g body weight. Immediately following the second injection, each shrew was placed in the observation cage, and both the number of animals vomiting per group and the frequency of vomiting (oral ejections of food or liquid) were recorded for the next 60 min
Poisson regression and logistic regression analyses were employed for two-way analysis of vomiting frequency and protection from emesis, respectively. […] Data regarding the frequency of emesis were analyzed by the Kruskal-Wallis nonparametric one-way analysis of variance (ANOVA), and post hoc analysis by Dunn's multiple comparisons test. The incidence of emesis (number of animals vomiting) was analyzed by Fisher's exact test to determine whether there were differences between groups, and when appropriate, pairwise comparisons were also made. A p value of<0.05 was necessary to achieve statistical significance.

[5] = 1 mg/kg i.p., administered alone
[6] = 5 mg/kg i.p., administered alone
[7] = tropisetron 0.1 mg/kg with 0.5 mg/kg Δ^9-THC
[8] = tropisetron 0.25 mg/kg with 0.25 mg/kg Δ^9-THC
[9] = tropisetron 0.25 mg/kg with 0.5 mg/kg Δ^9-THC
[10] = tropisetron 1 mg/kg with 0.1 mg/kg Δ^9-THC
[11] = tropisetron 1 mg/kg with 0.25 mg/kg Δ^9-THC
[12] = tropisetron 1 mg/kg with 0.5 mg/kg Δ^9-THC
[13] = tropisetron 5 mg/kg with 0.1 mg/kg Δ^9-THC
[14] = tropisetron 5 mg/kg with 0.25 mg/kg Δ^9-THC
[15] = tropisetron 5 mg/kg with 0.5 mg/kg Δ^9-THC

COC(=O)C(NC(=O)c1cc(-c2ccccc2)nc2ccccc12)c1ccccc1 (centres unmarked) [SB218795]
behavioral effect of antagonist by itself [1]: did not produce any behavioral effect
enhancement of frequency of GR73632-induced emesis ([1]; antagonist 20 mg/kg i.p.): did not attain significance
enhancement of frequency of GR73632-induced scratching ([1]; antagonist 20 mg/kg i.p.): did not attain significance
percentage of shrews vomiting in response to GR73632 ([1]; antagonist 20 mg/kg i.p.): failed to affect

CCCCC/C=C\C\C=C/C=C/C=C/[C@@H](SC[C@H](NC(=O)CC[C@H](N)C(=O)O)C(=O)NCC(=O)O)[C@@H](O)CCCC(=O)O [LTC4]
emesis in the Least Shrew (Least Shrew [2]): potent emetogens; also recorded: produce emesis

O=C(O)CCC/C=C\C[C@@H]1[C@@H](/C=C/[C@@H](O)CCCCCO)[C@H](O)C[C@@H]1O [20 Hydroxy PGE2α]
emesis in the Least Shrew (Least Shrew [2]): produce emesis

COC1(C[S@@+]([O-])c2ccccc2)CCN(CCc2c[nH]c3ccc(F)cc23)CC1 [GR159897, 5-Flouro-3-[2-[4-methoxy-4-[[(R)-phenylsulphinyl]methyl]-1-piperidinyl]ethyl]-1H-indole]
behavioral effect of antagonist by itself [1]: did not produce any behavioral effect
enhancement of frequency of GR73632-induced emesis ([1]; antagonist 20 mg/kg i.p.): did not attain significance
enhancement of frequency of GR73632-induced scratching ([1]; antagonist 20 mg/kg i.p.): did not attain significance
percentage of shrews vomiting in response to GR73632 ([1]; antagonist 20 mg/kg i.p.): failed to affect

CCCCC/C=C\C\C=C/C=C/C=C/[C@@H](SC[C@H](N)C(=O)O)[C@@H](O)CCCC(=O)O [LTE4]
emesis in the Least Shrew (Least Shrew [2]): non-emetic

CCCCC/C=C\C\C=C/C=C/C=C/[C@@H](SC[C@H](NC(=O)CC[C@@H](N)C(=O)O)C(=O)O)[C@@H](O)CCCC(=O)O [LTF4]
emesis in the Least Shrew (Least Shrew [2]): non-emetic

[Lys^3, Gly^8-R-gamma-lactam-leu^9]Neurokinin-A (3-10) [GR64349]
produced emesis or significant scratchings (Least Shrew [3]; doses up to 10 mg/kg i.p.): neither

[Sar^9, Met (O2)”]-Substance P [Sar Met-SP]
percentage of shrews vomiting (Least Shrew [3]; 1 mg/kg i.p.): 20%
percentage of shrews vomiting (Least Shrew [3]; 5 mg/kg i.p.): 33%
percentage of shrews vomiting (Least Shrew [3]; 10 mg/kg i.p.): 0%

acetyl-[Arg, Sar^9, Met (O2)^11]-SP (6-11) [ASMSP]
percentage of shrews vomiting (Least Shrew [3]; 5 mg/kg i.p.): 37%
percentage of shrews vomiting (Least Shrew [3]; 10 mg/kg i.p.): 50%
percentage of shrews vomiting (Least Shrew [3]; 20 mg/kg i.p.): 50%

CCCCC/C=C\C\C=C/C=C/C=C/[C@@H]1O[C@H]1CCCC(=O)O [LTA4]
emesis in the Least Shrew (Least Shrew [2]): non-emetic

CN1[C@@H]2CC[C@H]1C[C@@H](OC(=O)c1c[nH]c3ccccc13)C2 [tropisetron]
reduction in frequency of CIS-induced emesis ([4]; 0.25 mg/kg i.p., administered alone): 79%
reduction in frequency of CIS-induced emesis [4, 5]: 94%
reduction in percentage of shrews vomiting in response to CIS [4, 5]: 75%
reduction in frequency of CIS-induced emesis [4, 6]: 99.8%
reduction in percentage of shrews vomiting in response to CIS [4, 6]: 92%
reduction in number of shrews vomiting, over tested doses ([4]; drug by itself, dose-dependent): completely protected
reduction in frequency of CIS-induced emesis ([4]; tropisetron 0.025 mg/kg with 0.25 mg/kg Δ^9-THC): 60%
reduction in frequency of CIS-induced emesis ([4]; tropisetron 0.1 mg/kg with 0.25 mg/kg Δ^9-THC): 59.8%
reduction in frequency of CIS-induced emesis [4, 7]: 57.5%
reduction in percentage of shrews vomiting in response to CIS [4, 7]: 58%
reduction in frequency of CIS-induced emesis ([4]; tropisetron 0.25 mg/kg with 0.1 mg/kg Δ^9-THC, vs 0 mg/kg tropisetron): 88%
reduction in frequency of CIS-induced emesis [4, 8]: 84%
reduction in percentage of shrews vomiting in response to CIS [4, 8]: 50%
reduction in frequency of CIS-induced emesis [4, 9]: 70%
reduction in percentage of shrews vomiting in response to CIS [4, 9]: 50%
reduction in frequency of CIS-induced emesis [4, 10]: 90.6%
reduction in percentage of shrews vomiting in response to CIS [4, 10]: 78%
reduction in frequency of CIS-induced emesis [4, 11]: 100%
reduction in percentage of shrews vomiting in response to CIS [4, 11]: 100%
reduction in frequency of CIS-induced emesis [4, 12]: 70.1%
reduction in percentage of shrews vomiting in response to CIS [4, 12]: 83%
reduction in frequency of CIS-induced emesis [4, 13]: 89.4%
reduction in percentage of shrews vomiting in response to CIS [4, 13]: 71%
reduction in frequency of CIS-induced emesis [4, 14]: 93%
reduction in percentage of shrews vomiting in response to CIS [4, 14]: 70%
reduction in frequency of CIS-induced emesis [4, 15]: 69.8%
reduction in percentage of shrews vomiting in response to CIS [4, 15]: 58%
effect on frequency of CIS-induced vomiting ([4]; tropisetron, all doses, combined with 1 mg/kg or 5 mg/kg Δ^9-THC): None of the cited doses of tropisetron had a significant effect
effect on percentage of shrews vomiting ([4]; tropisetron, any dose, with 1 mg/kg and 5 mg/kg Δ^9-THC): no dose of tropisetron significantly altered

CCCCC/C=C\C\C=C/C=C/C=C/[C@@H](SC[C@H](N)C(=O)NCC(=O)O)[C@@H](O)CCCC(=O)O [LTD4]
emesis in the Least Shrew (Least Shrew [2]): potent emetogens; also recorded: produce emesis

CCCCC[C@H](O)/C=C/[C@@H]1[C@@H](C/C=C\CCCC(=O)O)[C@@H](O)C[C@H]1O [PGF2α]
emesis in the Least Shrew (Least Shrew [2]): produce emesis

CCCCC[C@H](O)/C=C/[C@@H]1[C@H]2C/C(=C/CCCC(=O)O)O[C@H]2C[C@H]1O [PGI2]
emesis in the Least Shrew (Least Shrew [2]): non-emetic

CCCCC[C@@H](/C=C/[C@@H]1[C@@H](C/C=C\CCCC(=O)O)[C@@H]2C[C@H]1OO2)OO [PGG2]
emesis in the Least Shrew (Least Shrew [2]): produce emesis

O=C(O)CCC/C=C\C[C@H]1C(=O)C[C@@H](O)[C@@H]1/C=C/[C@@H](O)CCCCCO [20 Hydroxy PGE2]
emesis in the Least Shrew (Least Shrew [2]): produce emesis

CCCCC/C=C\C[C@@H](O)/C=C/C=C/C=C\[C@@H](O)CCCC(=O)O [LTB4]
emesis in the Least Shrew (Least Shrew [2]): non-emetic

Cl.FC(F)(F)c1cc(CO[C@H]2CCCN[C@H]2c2ccccc2)cc(C(F)(F)F)c1 [L733060]
reduction in frequency of GR73632-induced emesis ([1]; antagonist 5 mg/kg i.p.): 62%
reduction in percentage of shrews vomiting in response to GR73632 ([1]; antagonist 5 mg/kg i.p.): 33%
reduction of GR73632-induced scratchings ([1]; antagonist 5 mg/kg i.p.): 63%
reduction in frequency of GR73632-induced emesis ([1]; antagonist 10 mg/kg i.p.): 74%
reduction in percentage of shrews vomiting in response to GR73632 ([1]; antagonist 10 mg/kg i.p.): 53%
reduction of GR73632-induced scratchings ([1]; antagonist 10 mg/kg i.p.): 69%
reduction in frequency of GR73632-induced emesis ([1]; antagonist 20 mg/kg i.p.): 95%
reduction in percentage of shrews vomiting in response to GR73632 ([1]; antagonist 20 mg/kg i.p.): 73%
reduction of GR73632-induced scratchings ([1]; antagonist 20 mg/kg i.p.): 54%
onset of first emesis induced by GR73632 ([1]; at highest tested effective antiemetic doses): only delayed the onset of first emesis

CCCCC[C@H](O)/C=C/[C@H]1[C@H](O)CC(=O)[C@@H]1C/C=C\CCCC(=O)O [PGE2]
emesis in the Least Shrew (Least Shrew [2]): non-emetic

CCCCC[C@H](O)/C=C/[C@H]1C(=O)C[C@H](O)[C@@H]1C/C=C\CCCC(=O)O [PGD2]
emesis in the Least Shrew (Least Shrew [2]): non-emetic

CCCCC/C=C\C/C=C\C/C=C\C/C=C\CCCC(=O)O [arachidonic acid]
emesis in the Least Shrew (Least Shrew [2]): produce emesis
